Laboratory results published in PubChem BioAssay (NCI).
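Each compound was tested at five concentrations against cells in 96-well plates for 48 hours. The concentration for full growth arrest is given as TGI.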

How the values were obtained:
Assay in all cases: DTP human tumour cell line panel, 48 h
[1] = tested on: MDA-MB-435
[2] = tested on: HOP-92 NSCLC
[3] = tested on: OVCAR-3 ovarian
[4] = tested on: CAKI-1 renal
[5] = tested on: SNB-75 CNS
[6] = tested on: T-47D breast

Row | Structure (SMILES) | TGI [1] | TGI [2] | TGI [3] | TGI [4] | TGI [5] | TGI [6]
1 | Cc1ccc(-n2cc(-c3ccc(Cl)cc3)c3c2N=CN2NC(c4ccco4)=NC32)cc1 (stereo not given) | > 100 µM | 9.88 µM | 73.8 µM | 27.3 µM | 18.1 µM | 
2 | CN1c2ccccc2C(=O)NC12CCN(CC1COc3ccccc3O1)CC2 (stereo not given) | > 100 µM | 71.3 µM |  |  | > 100 µM | 98.8 µM
3 | CCOC1NC(=O)c2ccccc21 (stereo not given) | > 100 µM | > 100 µM | > 100 µM |  | > 100 µM | > 100 µM
4 | CN(C)c1nc(=NCc2ccccn2)ss1 | > 10 µM | > 10 µM | > 10 µM | > 10 µM | > 10 µM | > 10 µM
5 | COc1ccc(N2C(=O)C3c4[nH]c5ccccc5c4C4C(C)CCCC4C3C2=O)cc1 (stereo not given) | > 30.2 µM | > 100 µM | > 100 µM | > 100 µM | > 77 µM | > 100 µM
6 | CCNC(=S)N/N=C/c1ccccn1 | > 100 µM |  |  |  | > 100 µM | > 100 µM
7 | CNc1ccc2c(c1)Cc1ccccc1-2 | 69.3 µM | 64.1 µM | 62.5 µM | 90.7 µM | > 100 µM | > 100 µM
8 | O=CN(O)CC(=O)O | > 100 µM | > 100 µM | > 100 µM |  | > 100 µM | > 100 µM
9 | CCOC(=O)Cc1nn2c(=O)cc(C)nc2s1 | > 100 µM | > 100 µM | > 100 µM | > 100 µM | > 100 µM | > 100 µM
10 | O=C(NCCCNCCCCNCCCNC(=O)C(F)(F)F)C(F)(F)F | > 100 µM |  | > 100 µM | 40.4 µM | > 100 µM | > 100 µM
11 | COc1ccc(CCCCl)c(C2=NCCc3ccccc32)c1 | > 100 µM | > 100 µM | > 100 µM | > 100 µM | > 100 µM | > 100 µM
12 | O=C(/C=C1\C[C@H]2C=Nc3ccccc3C(=O)N2C1)NCCCCCNC(=O)/C=C1\C[C@H]2C=Nc3ccccc3C(=O)N2C1 | 19 µM | 16.1 µM | 14.2 µM | 6.38 µM | 28.4 µM | 15.7 µM
13 | CC(O)(C(=O)N(O)c1ccc(Cl)cc1)c1ccc(Cl)cc1 (stereo not given) | 87.8 µM | 48.3 µM | 72.8 µM | 83.6 µM |  | > 100 µM
14 | Cc1cc2c(cc1Cl)SC(NNc1cnc3ccccc3n1)=NS2(=O)=O | > 100 µM | 77.2 µM | > 100 µM | > 100 µM | > 100 µM | > 100 µM
15 | CC12CCC(C/C1=N\NC(N)=O)C2(C)C (stereo not given) | > 100 µM | > 100 µM | > 100 µM | > 100 µM | > 100 µM | > 100 µM
16 | FC(F)=C(c1ccc(-c2ccc(Cl)cc2)cc1)C(F)(F)F | 49.4 µM | 33.4 µM |  | 46.3 µM | 25.6 µM | 76.8 µM

Row | Structure (SMILES) | TGI [1] | TGI [2] | TGI [3] | TGI [4] | TGI [5] | TGI [6]
17 | COC(=O)c1cc(C(=O)OC)cc(-c2ccc3c(c2)-c2nc4c(c(-c5ccc(OC)cc5)c2CC3)CCc2ccc(-c3cc(C(=O)OC)cc(C(=O)OC)c3)cc2-4)c1 | > 100 µM | > 100 µM | > 100 µM | > 100 µM | > 100 µM | > 100 µM
18 | COC(=O)C1=C(C)N2[C@H](C(=O)O)CS[C@@]2(C)[C@H](C(=O)OC)[C@H]1c1cccc([N+](=O)[O-])c1 | > 100 µM | > 100 µM | > 100 µM | > 100 µM | > 100 µM | > 100 µM
19 | COC(=O)C(CCSC)NC(=O)CSc1nnc(COc2ccc(Cl)cc2)n1-c1ccccc1 (stereo not given) | 34.3 µM | 34.6 µM | 5.37 µM | 35.9 µM | 33.7 µM | > 78.7 µM
20 | Cc1cn(C2CC(OC(c3ccccc3)(c3ccccc3)c3ccccc3)C(COC(c3ccccc3)(c3ccccc3)c3ccccc3)O2)c(=O)[nH]c1=O (stereo not given) | > 100 µM | 83.6 µM | > 100 µM | > 100 µM | > 100 µM | 
21 | OC(c1ccco1)C(F)(F)c1nc2ccccc2o1 (stereo not given) | > 100 µM | > 100 µM |  | > 100 µM | > 100 µM | > 100 µM
22 | CCCC[C@@H]1CCN2C[C@@H](O)[C@@H](O)[C@H]2[C@@H]1O | > 100 µM | > 100 µM | > 100 µM | > 100 µM | > 100 µM | 
23 | CC1=CCC[C@H]2[C@](C)(CC3=CC(=O)C4SCCSC4C3=O)[C@@H](C)CC[C@]12C (stereo not given in full) | 58.7 µM | 70.4 µM | 48.4 µM | 99.2 µM | 80.8 µM | > 100 µM
24 | CCOC(=O)c1c(NC(=S)Nc2ccc(C)cc2)sc2c1CCN(C)C2 |  |  | > 100 µM | > 100 µM | 0.0946 µM | > 100 µM
25 | CC1(C)[C@@H]2C[C@H]1c1cnc(-c3ccccn3)cc1[C@H]2C(O)[C@@H]1c2cc(-c3ccccn3)ncc2[C@H]2C[C@@H]1C2(C)C (stereo not given in full) | > 38.5 µM | 21.8 µM | 1.77 µM | 2.43 µM | 87.3 µM | 53.1 µM
26 | CCOC(=O)c1[nH]c2nc(SC)nc(NC)c2c1N | > 100 µM |  | > 100 µM | > 100 µM | > 100 µM | > 100 µM
27 | CC1(C)OC(CCO)CN1C(=O)OCc1ccccc1 (stereo not given) | > 100 µM | > 100 µM | > 100 µM | > 100 µM | > 100 µM | 
28 | NS(=O)(=O)c1nnc(NSc2ccc([N+](=O)[O-])cc2)s1 | > 100 µM | > 100 µM | > 100 µM | > 100 µM |  | > 100 µM
29 | COc1cc(-c2c3c(cc4c2OCO4)[C@@H](Nc2ccc4c(c2)Cc2cc(N[C@@H]5c6cc7c(cc6C(c6cc(OC)c(O)c(OC)c6)[C@H]6C(=O)OC[C@H]56)OCO7)ccc2-4)[C@H]2COC(=O)[C@@H]2C3)cc(OC)c1O (stereo not given in full) | 33.1 µM | 97.3 µM | > 100 µM | 88.9 µM | > 100 µM | > 100 µM
30 | OCC1OC(O[C@H]2CN3[C@H](O)[C@@H](O)[C@H](O)[C@H]3C2O)C(O)C(O)C1O (stereo not given in full) | > 100 µM | > 100 µM | > 100 µM | > 100 µM |  | > 100 µM
31 | NNC(=O)c1cccc2c1Oc1ccccc1S2 | > 100 µM | > 100 µM |  | > 100 µM | > 100 µM | > 100 µM
